# Data published in patent publication US12091399B2, “Phenyltetrazole derivatives as plasma kallikrein inhibitors” (Boehringer Ingelheim International GmbH, priority 2018, dated 2024).
# Biological target: Human PKK (Homo sapiens (Human), UniProt P03952)
# Assay: Inhibition of PKK using an endpoint assay (human PKK)
# Format: biochemical
# Details: 1 h at rt, 0.10 μM H-Pro-Phe-Arg-AMC
# Procedure: The ability of compounds of formula (I) to inhibit plasma kallikrein (PKK), Factor XIIa (FXIIa), Factor XIa (FXIa), Factor Xa (FXa), Factor IIa (alpha-thrombin; FIIa), plasmin, trypsin, tissue kallikrein 1 (TK1), Factor Vila (FVIIa), or FVIIa complexed with Tissue Factor, phospholipids and CaCl2) (FVIIa/TF/PL/CaCl2) was determined using the following biochemical assays in assay buffer (100 mM Tris, 150 mM NaCL, adjusted to a pH of 7.8 with HCl, and containing 0.1% (w/v) BSA and 0.05% (v/v) Tween20) in the presence of 1% (v/v) DMSO:
# Subsequently, PPACK II (Calbiochem) was added as a stop solution to achieve a final concentration of 1 μM and fluorescence was measured using an Envision Reader (PerkinElmer) with the wavelength excitation setting of 355 nm and the wavelength emission setting of 460 nm. The number of the compound corresponds to the number of the Example in the experimental section.
# Sequence of Human PKK (P03952 391-638): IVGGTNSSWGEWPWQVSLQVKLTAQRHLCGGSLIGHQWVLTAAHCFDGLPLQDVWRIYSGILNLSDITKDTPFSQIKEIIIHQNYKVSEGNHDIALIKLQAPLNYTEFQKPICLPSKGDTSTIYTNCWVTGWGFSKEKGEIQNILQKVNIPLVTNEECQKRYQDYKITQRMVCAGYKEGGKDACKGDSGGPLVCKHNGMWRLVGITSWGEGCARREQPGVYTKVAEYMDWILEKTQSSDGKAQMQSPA
# Sequence of Human PKK (P03952 20-390 partner): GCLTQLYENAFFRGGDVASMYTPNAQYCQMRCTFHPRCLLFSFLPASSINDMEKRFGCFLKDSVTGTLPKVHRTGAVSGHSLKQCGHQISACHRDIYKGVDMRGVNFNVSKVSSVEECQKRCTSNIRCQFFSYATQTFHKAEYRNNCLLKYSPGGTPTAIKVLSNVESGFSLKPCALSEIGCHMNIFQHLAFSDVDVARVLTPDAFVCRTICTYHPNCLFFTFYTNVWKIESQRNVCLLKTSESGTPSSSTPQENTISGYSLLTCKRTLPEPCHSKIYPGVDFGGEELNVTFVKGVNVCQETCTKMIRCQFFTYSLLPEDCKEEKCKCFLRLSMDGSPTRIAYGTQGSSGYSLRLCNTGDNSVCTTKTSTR
row,SMILES,IC50 [nM]
1,"COC1C2CC1CN(c1ccc(Cn3cc(C(=O)NCc4cc(Cl)ccc4-n4cnnn4)cn3)c(C)n1)C2 (stereo not drawn) [Example 84, N-{[5-chloro-2-(1H-1,2,3,4-tetrazol-1-yl)phenyl]methyl}-1-[(6-{6-methoxy-3-azabicyclo[3.1.1]heptan-3-yl}-2-methylpyridin-3-yl)methyl]-1H-pyrazole-4-carboxamide]",4
2,COCc1nn(Cc2ccc(N3CC4C(C3)C4(F)F)nc2C)cc1C(=O)NCc1c(-n2cnnn2)ccc(Cl)c1F (stereo not drawn) [Example 11],0.6
3,"Cc1nc(N2CC3(CCOCC3)C2)ccc1Cn1cc(C(=O)NCc2cc(Cl)ccc2-n2cnnn2)cn1 [Example 78, N-{[5-chloro-2-(1H-1,2,3,4-tetrazol-1-yl)phenyl]methyl}-1-[(2-methyl-6-{7-oxa-2-azaspiro[3.5]nonan-2-yl}pyridin-3-yl)methyl]-1H-pyrazole-4-carboxamide]",19
4,Cc1nc(N2CC3CC3C2)ncc1Cn1cc(C(=O)NCc2cc(Cl)ccc2-n2cnnn2)c2cncnc21 (stereo not drawn) [Example 27],3
5,Cc1nc(N2CC3C(C2)C3(F)F)ccc1Cn1cc(C(=O)NCc2c(-n3cnnn3)ccc(Cl)c2F)c(C)n1 (stereo not drawn) [Example 17],0.4
6,Cc1nc(N2CC3C(C2)C3(F)F)ncc1Cn1cc(C(=O)NCc2c(-n3cnnn3)ccc(Cl)c2F)c2cncnc21 (stereo not drawn) [Example 23],1
7,"Cc1nc(N2CC3(CCCN3)C2)ccc1Cn1cc(C(=O)NCc2cc(Cl)ccc2-n2cnnn2)cn1 [Example 91, N-{[5-chloro-2-(1H-1,2,3,4-tetrazol-1-yl)phenyl]methyl}-1-[(6-{2,5-diazaspiro[3.4]octan-2-yl}-2-methylpyridin-3-yl)methyl]-1H-pyrazole-4-carboxamide]",122
8,Cc1nc(N2CC3CC3C2)ccc1Cn1cc(C(=O)NCc2c(-n3cnnn3)ccc(Cl)c2F)c(C)n1 (stereo not drawn) [Example 20],0.4
9,COCc1nn(Cc2ccc(N3CC4C(C3)C4(F)F)nc2C)cc1C(=O)NCc1cc(Cl)ccc1-n1cnnn1 (stereo not drawn) [Example 12],0.9
10,Cc1nc(N2CC3CC3C2)ncc1Cn1cc(C(=O)NCc2c(-n3cnnn3)ccc(Cl)c2F)c(C)n1 (stereo not drawn) [Example 30],0.8
11,Cc1nc(N2CC3(CC3)C2)ncc1Cn1cc(C(=O)NCc2cc(Cl)ccc2-n2cnnn2)c2cncnc21 [Example 57],5
12,Cc1nc(N2CC3CC3C2)ccc1Cn1cc(C(=O)NCc2c(-n3cnnn3)ccc(Cl)c2F)c2cncnc21 (stereo not drawn) [Example 16],0.6
13,"Cc1nc(N2CC[C@@]3(N)C[C@H]3C2)ccc1Cn1cc(C(=O)NCc2cc(Cl)ccc2-n2cnnn2)cn1 [Example 89, 1-({6-[(1S,6S)-6-amino-3-azabicyclo[4.1.0]heptan-3-yl]-2-methylpyridin-3-yl}methyl)-N-{[5-chloro-2-(1H-1,2,3,4-tetrazol-1-yl)phenyl]methyl}-1H-pyrazole-4-carboxamide]",61
14,"Cc1nc(N2CCCC3(CC3)C2)ccc1Cn1cc(C(=O)NCc2cc(Cl)ccc2-n2cnnn2)cn1 [Example 72, 1-[(6-{5-azaspiro[2.5]octan-5-yl}-2-methylpyridin-3-yl)methyl]-N-{[5-chloro-2-(1H-1,2,3,4-tetrazol-1-yl)phenyl]methyl}-1H-pyrazole-4-carboxamide]",74
15,"Cc1nc(N2CC3(CC3)C2)ccc1Cn1cc(C(=O)NCc2c(F)cccc2-n2cnnn2)cn1 [Example 94, 1-[(6-{5-azaspiro[2.3]hexan-5-yl}-2-methylpyridin-3-yl)methyl]-N-{[2-fluoro-6-(1H-1,2,3,4-tetrazol-1-yl)phenyl]methyl}-1H-pyrazole-4-carboxamide]",4
16,Cc1nc(N2CC3(CC3)C2)ccc1Cn1cc(C(=O)NCc2c(-n3cnnn3)ccc(Cl)c2F)c(C)n1 [Example 28],14
17,"Cc1nc(N2CC3CC2CO3)ccc1Cn1cc(C(=O)NCc2cc(Cl)ccc2-n2cnnn2)cn1 (stereo not drawn) [Example 77, N-{[5-chloro-2-(1H-1,2,3,4-tetrazol-1-yl)phenyl]methyl}-1-[(2-methyl-6-{2-oxa-5-azabicyclo[2.2.1]heptan-5-yl}pyridin-3-yl)methyl]-1H-pyrazole-4-carboxamide]",49
18,"Cc1nc(N2CC3(CC(O)C3)C2)ccc1Cn1cc(C(=O)NCc2cc(Cl)ccc2-n2cnnn2)cn1 [Example 64, N-{[5-chloro-2-(1H-1,2,3,4-tetrazol-1-yl)phenyl]methyl}-1-[(6-{6-hydroxy-2-azaspiro[3.3]heptan-2-yl}-2-methylpyridin-3-yl)methyl]-1H-pyrazole-4-carboxamide]",225
19,"Cc1nc(N2C[C@@H]3C[C@]3(N)C2)ccc1Cn1cc(C(=O)NCc2cc(Cl)ccc2-n2cnnn2)cn1 [Example 88, 1-({6-[(1R,5S)-1-amino-3-azabicyclo[3.1.0]hexan-3-yl]-2-methylpyridin-3-yl}methyl)-N-{[5-chloro-2-(1H-1,2,3,4-tetrazol-1-yl)phenyl]methyl}-1H-pyrazole-4-carboxamide]",127
20,Cc1nc(N2CC3CC3C2)ncc1Cn1cc(C(=O)NCc2c(-n3cnnn3)ccc(Cl)c2F)c2cncnc21 (stereo not drawn) [Example 26],0.9

# The remaining compounds from weak to strong by IC50, led by results:
row,IC50 [nM],SMILES
1,155,"Cc1nc(N2C[C@@H]3CCN[C@@H]3C2)ccc1Cn1cc(C(=O)NCc2cc(Cl)ccc2-n2cnnn2)cn1 [Example 92, 1-({6-[(3aS,6aS)-octahydropyrrolo[3,4-b]pyrrol-5-yl]-2-methylpyridin-3-yl}methyl)-N-{[5-chloro-2-(1H-1,2,3,4-tetrazol-1-yl)phenyl]methyl}-1H-pyrazole-4-carboxamide]"
2,7,"Cc1nc(N2CC3COCC(C3)C2)ccc1Cn1cc(C(=O)NCc2cc(Cl)ccc2-n2cnnn2)cn1 [Example 75, N-{[5-chloro-2-(1H-1,2,3,4-tetrazol-1-yl)phenyl]methyl}-1-[(2-methyl-6-{3-oxa-7-azabicyclo[3.3.1]nonan-7-yl}pyridin-3-yl)methyl]-1H-pyrazole-4-carboxamide]"
3,6,COCc1nn(Cc2cnc(N3CC4(CC4)C3)nc2C)cc1C(=O)NCc1cc(Cl)ccc1-n1cnnn1 [Example 41]
4,3,"Cc1nc(N2C[C@@H]3CNC(=O)[C@@H]3C2)ccc1Cn1cc(C(=O)NCc2cc(Cl)ccc2-n2cnnn2)cn1 [Example 62, 1-({6-[(3aS,6aS)-4-oxo-octahydropyrrolo[3,4-c]pyrrol-2-yl]-2-methylpyridin-3-yl}methyl)-N-{[5-chloro-2-(1H-1,2,3,4-tetrazol-1-yl)phenyl]methyl}-1H-pyrazole-4-carboxamide]"
5,3,"Cc1nc(N2CCC3(CCCO3)C2)ccc1Cn1cc(C(=O)NCc2cc(Cl)ccc2-n2cnnn2)cn1 (stereo not drawn) [Example 76, N-{[5-chloro-2-(1H-1,2,3,4-tetrazol-1-yl)phenyl]methyl}-1-[(2-methyl-6-{1-oxa-7-azaspiro[4.4]nonan-7-yl}pyridin-3-yl)methyl]-1H-pyrazole-4-carboxamide]"
6,2,Cc1nc(N2CC3(CC3)C2)ncc1Cn1cc(C(=O)NCc2cc(Cl)ccc2-n2cnnn2)c(C)n1 [Example 37]
7,1,COc1nn(Cc2ccc(N3CC4CC4C3)nc2C)cc1C(=O)NCc1c(-n2cnnn2)ccc(Cl)c1F (stereo not drawn) [Example 22]
8,1,COCc1nn(Cc2cnc(N3CC4CC4C3)nc2C)cc1C(=O)NCc1c(-n2cnnn2)ccc(Cl)c1F (stereo not drawn) [Example 35]
9,0.8,Cc1nc(N2CC3CC3C2)ccc1Cn1cc(C(=O)NCc2c(-n3cnnn3)ccc(Cl)c2F)c(Cl)n1 (stereo not drawn) [Example 7]
10,0.5,Cc1nc(N2CC3CC3C2)ccc1Cn1cc(C(=O)NCc2c(-n3cnnn3)ccc(Cl)c2F)c(C(F)F)n1 (stereo not drawn) [Example 10]
